In patent US8063221B2, “Aminoquinolones as GSK-3 inhibitors” (Kyorin Pharmaceutical Co., Ltd., priority 2006, dated 2011) one finds IC50 and MIC data, which are given here for 19 compounds.

≈ marks a conversion by molar mass, not a printed value. A value given as a limit tells only on which side of the number the result lay.

T1 sequence (P49841 whole entry): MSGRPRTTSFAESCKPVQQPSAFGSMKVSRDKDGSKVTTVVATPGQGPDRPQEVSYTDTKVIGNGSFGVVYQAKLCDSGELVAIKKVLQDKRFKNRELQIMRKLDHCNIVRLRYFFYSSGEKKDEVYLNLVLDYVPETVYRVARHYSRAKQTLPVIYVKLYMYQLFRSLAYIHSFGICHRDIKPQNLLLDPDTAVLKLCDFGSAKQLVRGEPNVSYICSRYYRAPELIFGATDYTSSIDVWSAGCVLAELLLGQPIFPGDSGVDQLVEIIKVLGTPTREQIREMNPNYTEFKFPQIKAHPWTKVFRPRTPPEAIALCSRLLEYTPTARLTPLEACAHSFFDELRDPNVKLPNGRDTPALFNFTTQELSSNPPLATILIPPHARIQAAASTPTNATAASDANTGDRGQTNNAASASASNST

One assay addresses T1, recombinant full-length human GSK3β (Homo sapiens, UniProt P49841).
T1 construct: recombinant full-length human GSK3β (Upstate); purchased Upstate
In words: Luciferase-coupled cell-free GSK3β kinase assay. The following applies: Table 1. The class given is biochemical. The protocol:
For compounds in Tables 1 and 2, IC50 (μM) for GSK3β enzyme in cell free assay is provided as follows:
Luciferase-Coupled Protein Kinase Assays
All coupled-luciferase assays are performed by using a brief incubation with firefly luciferase (Promega) after completion of the kinase assay. KinaseGlo Plus is used for reading kinase reactions with ATP>10 μM, KinaseGlo for ATP <10 μM. The assay volume in a 384-well plate for the kinase reaction is 30 microliters.
10-25 ng of recombinant full-length human GSK3β (Upstate) is incubated in the presence or absence of compound at varying concentrations for 1 hour at 30 degrees Celsius in 20 mM MOPS, pH 7.0, 10 mM magnesium acetate, 0.2 mM EDTA, 2 mM EGTA, 30 mM magnesium chloride, 62.5 μM phospho-glycogen synthase peptide-2, 5 μM ATP, 10 mM β-glycerol phosphate, 1 mM sodium orthovanadate and 1 mM dithiothreitol. Proceed to KinaseGlo luciferase reaction (see below).
Following the completion of the kinase reaction an equal volume of KinaseGlo or KinaseGlo Plus luciferase reagent (Promega) is added and the luminescence read using a luminescence plate reader within 5-10 minutes. Compound activity is expressed as % inhibition relative to maximal inhibition observed at the maximal dose and IC50 values then calculated using curve fitting software (GraphPad Prizm).
Broadly, the IC50 is the concentration that gives 50% inhibition. With `CC(C)OCCCNc1c(F)c(N)c2c(=O)ccn(C3CCCC3)c2c1F` [compound 75], the IC50 lay within 100 to 500 nM.

Consider `Nc1c(F)c(NCCCn2ccnc2)c(F)c2c1c(=O)ccn2C1CCCC1` [compound 74], for which the IC50 is < 100 nM.

On to `CC(C)OCCCNc1c(F)c(N)c2c(=O)ccn(CCc3ccccc3)c2c1F` [compound 60], for which the IC50 lay in the range of 500 to 1000 nM.

In the case of `COc1c(NCCNc2ccccn2)c(F)c(N)c2c(=O)c(C(=O)O)cn(C3CCCC3)c12` [compound 77], the IC50 is > 1000 nM.

Turning to `Nc1c(F)c(NCCCn2ccnc2)c(F)c2c1c(=O)ccn2C1CC1` [compound 26], the concentration for half-maximal inhibition (IC50) lay in the range of 100 to 500 nM.

For `Nc1c(F)c(NCCCc2ccccc2)c(F)c2c1c(=O)c(C(=O)O)cn2CCCn1ccnc1` [compound 65], the IC50 lay in the range of 100 to 500 nM.

Consider `Nc1c(F)c(NCCc2ccncc2)c(F)c2c1c(=O)ccn2CCc1ccccc1` [compound 59], for which the 50% inhibitory concentration (IC50) lay within 100 to 500 nM.

`CC1COc2c(NCCNc3ccccn3)c(F)c(N)c3c(=O)c(C(=O)O)cn1c23` (stereo not drawn) [compound 90]: the half-inhibitory concentration (IC50) was < 100 nM.

With `COc1c(NCCCn2cnc3ccccc32)c(F)c(N)c2c(=O)c(C(=O)O)cn(C3CC3)c12` [compound 83], the half-inhibitory concentration (IC50) is < 100 nM.

In the case of `Nc1c(F)c(NCCNc2ccccn2)c(F)c2c1c(=O)c(C(=O)O)cn2C1CC1` [compound 7], the IC50 fell in the range of 100 to 500 nM.

With `COc1c(NCCCn2ccnc2)c(F)c(N)c2c(=O)c(C(=O)O)cn(C3CCCC3)c12` [compound 78], the IC50 lay within 500 to 1000 nM.

As for `Nc1c(F)c(NCCCn2ccnc2)c(F)c2c1c(=O)c(C(=O)O)cn2CCc1ccccc1` [compound 48], the IC50 was < 100 nM.

With `Nc1c(F)c(NCCc2ccc(F)cc2F)c(F)c2c1c(=O)c(C(=O)O)cn2C1CC1` [compound 19], the IC50 lay in the range of 100 to 500 nM.

Consider `Nc1c(F)c(NCCNc2cccc3ccccc23)c(F)c2c1c(=O)c(C(=O)O)cn2CCc1ccccc1` [compound 51], for which the IC50 lay in the range of 100 to 500 nM.

In the case of `COc1c(NCCCn2ccnc2)c(F)c(N)c2c(=O)c(C(=O)O)cn(C3CC3)c12` [compound 69], the IC50 was < 100 nM.

Consider `Nc1ccc(CCNc2c(F)c(N)c3c(=O)ccn(C4CC4)c3c2F)cc1` [compound 12], for which the IC50 was in the range of 500 to 1000 nM.

With `Nc1c(F)c(NCCc2ccc(F)cc2)c(F)c2c1c(=O)c(C(=O)O)cn2C1CC1` [compound 5], the IC50 was 100 to 500 nM.

For `Nc1c(F)c(NCCCc2ccccc2)c(F)c2c1c(=O)c(C(=O)O)cn2C1CCCC1` [compound 52], the IC50 is < 100 nM.

Turning to `Nc1c(F)c(NCCCc2ccccc2)c(F)c2c1c(=O)ccn2C1CC1` [compound 13], the IC50 was 100 to 500 nM.

A further assay has as its system E. coli, ATCC8739. In words: Antibacterial activity (MIC), E. coli. It is filed as cell-based. The following applies: Escherichia coli, ATCC8739, Table 1; E. coli ATCC8739; read-out: Antibacterial MIC (μM) E.Coli. The text has this: (§1) As used herein, a minimum inhibitory concentration (MIC) for bacterial growth assay is the lowest level of a compound needed to cause an inhibition to bacterial growth in culture medium. In certain embodiments, the antibacterial activity of compounds herein, measured as MIC.
(§2) In certain embodiments, GSK3 inhibitors provided herein are substantially free of antibacterial activity or having very low antibacterial activity. The antibacterial activity can be measured by methods known in the art by estimating a minimum inhibitory concentration (MIC) for test compounds. A MIC is the lowest level of a compound needed to cause an inhibition to bacterial growth in a culture medium. […] (Clinical and Laboratory Standards Institute. Methods for Dilution Antimicrobial Susceptibility Tests for Bacteria That Grow Aerobically; Approved Standard-Sixth Edition: CLSI document […]. CLSI, Wayne, Pa. (2003))
(§3) Antibacterial activity for E. coli, ATCC8739 andS. aureus Smith expressed as MIC (μM) is provided as follows: […]
A word on the MIC: it is the least concentration at which growth counts as inhibited. For `CC(C)OCCCNc1c(F)c(N)c2c(=O)ccn(C3CCCC3)c2c1F` [compound 75], the MIC is > 50 µM.

As for `Nc1c(F)c(NCCCn2ccnc2)c(F)c2c1c(=O)ccn2C1CCCC1` [compound 74], the minimal inhibitory concentration (MIC) was > 50 µM.

Take `CC(C)OCCCNc1c(F)c(N)c2c(=O)ccn(CCc3ccccc3)c2c1F` [compound 60]: the MIC was in the range of 10 to 50 µM (≈ 4.15 to 20.8 µg/mL).

`COc1c(NCCNc2ccccn2)c(F)c(N)c2c(=O)c(C(=O)O)cn(C3CCCC3)c12` [compound 77]: the MIC is 10 to 50 µM (≈ 4.55 to 22.8 µg/mL).

In the case of `Nc1c(F)c(NCCCn2ccnc2)c(F)c2c1c(=O)ccn2C1CC1` [compound 26], the minimal inhibitory concentration (MIC) was > 50 µM.

`Nc1c(F)c(NCCCc2ccccc2)c(F)c2c1c(=O)c(C(=O)O)cn2CCCn1ccnc1` [compound 65]: the MIC lay within 10 to 50 µM (≈ 4.82 to 24.1 µg/mL).

For `Nc1c(F)c(NCCc2ccncc2)c(F)c2c1c(=O)ccn2CCc1ccccc1` [compound 59], the MIC is > 50 µM.

Consider `CC1COc2c(NCCNc3ccccn3)c(F)c(N)c3c(=O)c(C(=O)O)cn1c23` (stereo not drawn) [compound 90], for which the MIC was in the range of 0.5 to 10 µM (≈ 0.207 to 4.13 µg/mL).

`Nc1c(F)c(NCCNc2ccccn2)c(F)c2c1c(=O)c(C(=O)O)cn2C1CC1` [compound 7]: the MIC is 0.5 to 10 µM (≈ 0.208 to 4.15 µg/mL).

In the case of `COc1c(NCCCn2ccnc2)c(F)c(N)c2c(=O)c(C(=O)O)cn(C3CCCC3)c12` [compound 78], the MIC is > 50 µM.

As for `Nc1c(F)c(NCCCn2ccnc2)c(F)c2c1c(=O)c(C(=O)O)cn2CCc1ccccc1` [compound 48], the MIC is > 50 µM.

As to `Nc1c(F)c(NCCc2ccc(F)cc2F)c(F)c2c1c(=O)c(C(=O)O)cn2C1CC1` [compound 19], the MIC was 0.5 to 10 µM (≈ 0.218 to 4.35 µg/mL).

Take `Nc1c(F)c(NCCNc2cccc3ccccc23)c(F)c2c1c(=O)c(C(=O)O)cn2CCc1ccccc1` [compound 51]: the MIC was 10 to 50 µM (≈ 5.29 to 26.4 µg/mL).

Turning to `COc1c(NCCCn2ccnc2)c(F)c(N)c2c(=O)c(C(=O)O)cn(C3CC3)c12` [compound 69], the MIC was in the range of 10 to 50 µM (≈ 4.15 to 20.8 µg/mL).

`Nc1ccc(CCNc2c(F)c(N)c3c(=O)ccn(C4CC4)c3c2F)cc1` [compound 12]: the minimal inhibitory concentration (MIC) is > 50 µM.

Consider `Nc1c(F)c(NCCc2ccc(F)cc2)c(F)c2c1c(=O)c(C(=O)O)cn2C1CC1` [compound 5], for which the minimum inhibitory concentration (MIC) was in the range of 0.5 to 10 µM (≈ 0.209 to 4.17 µg/mL).

As to `Nc1c(F)c(NCCCc2ccccc2)c(F)c2c1c(=O)c(C(=O)O)cn2C1CCCC1` [compound 52], the MIC fell in the range of 10 to 50 µM (≈ 4.41 to 22.1 µg/mL).

Consider `Nc1c(F)c(NCCCc2ccccc2)c(F)c2c1c(=O)ccn2C1CC1` [compound 13], for which the MIC was in the range of 10 to 50 µM (≈ 3.69 to 18.5 µg/mL).

The same assay, now with this note: Escherichia coli, ATCC8739, read-out: Antibacterial MIC (μM) E.Coli.
`COc1c(NCCCn2cnc3ccccc32)c(F)c(N)c2c(=O)c(C(=O)O)cn(C3CC3)c12` [compound 83]: the MIC is 10 to 50 µM (≈ 4.65 to 23.3 µg/mL).

The next assay deals with S. aureus Smith. The experiment in a line: Antibacterial activity (MIC), S. aureus. The class given is cell-based. The following applies: Staphylococcus aureus, Table 1; read-out: Antibacterial MIC (μM) S. aureus Smith.
Excerpt: as §1, §2, §3
Take `CC(C)OCCCNc1c(F)c(N)c2c(=O)ccn(C3CCCC3)c2c1F` [compound 75]: the MIC is > 50 µM.

In the case of `Nc1c(F)c(NCCCn2ccnc2)c(F)c2c1c(=O)ccn2C1CCCC1` [compound 74], the MIC was > 50 µM.

In the case of `CC(C)OCCCNc1c(F)c(N)c2c(=O)ccn(CCc3ccccc3)c2c1F` [compound 60], the MIC was 10 to 50 µM (≈ 4.15 to 20.8 µg/mL).

In the case of `COc1c(NCCNc2ccccn2)c(F)c(N)c2c(=O)c(C(=O)O)cn(C3CCCC3)c12` [compound 77], the minimum inhibitory concentration (MIC) fell in the range of 0.5 to 10 µM (≈ 0.228 to 4.55 µg/mL).

For the compound `Nc1c(F)c(NCCCn2ccnc2)c(F)c2c1c(=O)ccn2C1CC1` [compound 26], the MIC was > 50 µM.

With `Nc1c(F)c(NCCCc2ccccc2)c(F)c2c1c(=O)c(C(=O)O)cn2CCCn1ccnc1` [compound 65], the minimum inhibitory concentration (MIC) was 10 to 50 µM (≈ 4.82 to 24.1 µg/mL).

Consider `Nc1c(F)c(NCCc2ccncc2)c(F)c2c1c(=O)ccn2CCc1ccccc1` [compound 59], for which the MIC is > 50 µM.

`CC1COc2c(NCCNc3ccccn3)c(F)c(N)c3c(=O)c(C(=O)O)cn1c23` (stereo not drawn) [compound 90]: the MIC was in the range of 0.5 to 10 µM (≈ 0.207 to 4.13 µg/mL).

On to `Nc1c(F)c(NCCNc2ccccn2)c(F)c2c1c(=O)c(C(=O)O)cn2C1CC1` [compound 7], for which the MIC lay within 0.5 to 10 µM (≈ 0.208 to 4.15 µg/mL).

As to `COc1c(NCCCn2ccnc2)c(F)c(N)c2c(=O)c(C(=O)O)cn(C3CCCC3)c12` [compound 78], the MIC was > 50 µM.

Turning to `Nc1c(F)c(NCCCn2ccnc2)c(F)c2c1c(=O)c(C(=O)O)cn2CCc1ccccc1` [compound 48], the MIC was > 50 µM.

In the case of `Nc1c(F)c(NCCc2ccc(F)cc2F)c(F)c2c1c(=O)c(C(=O)O)cn2C1CC1` [compound 19], the MIC was in the range of 0.5 to 10 µM (≈ 0.218 to 4.35 µg/mL).

`Nc1c(F)c(NCCNc2cccc3ccccc23)c(F)c2c1c(=O)c(C(=O)O)cn2CCc1ccccc1` [compound 51]: the minimal inhibitory concentration (MIC) was in the range of 10 to 50 µM (≈ 5.29 to 26.4 µg/mL).

With `COc1c(NCCCn2ccnc2)c(F)c(N)c2c(=O)c(C(=O)O)cn(C3CC3)c12` [compound 69], the MIC was in the range of 0.5 to 10 µM (≈ 0.208 to 4.15 µg/mL).

For the compound `Nc1ccc(CCNc2c(F)c(N)c3c(=O)ccn(C4CC4)c3c2F)cc1` [compound 12], the MIC lay within 10 to 50 µM (≈ 3.7 to 18.5 µg/mL).

Take `Nc1c(F)c(NCCc2ccc(F)cc2)c(F)c2c1c(=O)c(C(=O)O)cn2C1CC1` [compound 5]: the MIC was < 0.5 µM.

In the case of `Nc1c(F)c(NCCCc2ccccc2)c(F)c2c1c(=O)c(C(=O)O)cn2C1CCCC1` [compound 52], the MIC is 10 to 50 µM (≈ 4.41 to 22.1 µg/mL).

Consider `Nc1c(F)c(NCCCc2ccccc2)c(F)c2c1c(=O)ccn2C1CC1` [compound 13], for which the MIC lay in the range of 10 to 50 µM (≈ 3.69 to 18.5 µg/mL).

Still in this assay, the particulars now being: Staphylococcus aureus, read-out: Antibacterial MIC (μM) S. aureus Smith.
Take `COc1c(NCCCn2cnc3ccccc32)c(F)c(N)c2c(=O)c(C(=O)O)cn(C3CC3)c12` [compound 83]: the MIC fell in the range of 0.5 to 10 µM (≈ 0.233 to 4.65 µg/mL).
